ChEMBL document CHEMBL2169818, “Syntheses and biological activities of sulfoximine-based acyclic triaryl olefins” (Bioorg Med Chem Lett, 2012)

Legend:
[1] = target: Estrogen receptor beta (Homo sapiens) (UniProt Q92731); test: Displacement of [3H]-estradiol from human recombinant ERbeta expressed in Sf21 cells at 10 uM after 2 hrs
[2] = target: T1, Estrogen receptor (Homo sapiens) (UniProt P03372); test: Displacement of [3H]-estradiol from human recombinant ERalpha expressed in Sf21 cells at 10 uM after 2 hrs
T1 sequence (whole entry): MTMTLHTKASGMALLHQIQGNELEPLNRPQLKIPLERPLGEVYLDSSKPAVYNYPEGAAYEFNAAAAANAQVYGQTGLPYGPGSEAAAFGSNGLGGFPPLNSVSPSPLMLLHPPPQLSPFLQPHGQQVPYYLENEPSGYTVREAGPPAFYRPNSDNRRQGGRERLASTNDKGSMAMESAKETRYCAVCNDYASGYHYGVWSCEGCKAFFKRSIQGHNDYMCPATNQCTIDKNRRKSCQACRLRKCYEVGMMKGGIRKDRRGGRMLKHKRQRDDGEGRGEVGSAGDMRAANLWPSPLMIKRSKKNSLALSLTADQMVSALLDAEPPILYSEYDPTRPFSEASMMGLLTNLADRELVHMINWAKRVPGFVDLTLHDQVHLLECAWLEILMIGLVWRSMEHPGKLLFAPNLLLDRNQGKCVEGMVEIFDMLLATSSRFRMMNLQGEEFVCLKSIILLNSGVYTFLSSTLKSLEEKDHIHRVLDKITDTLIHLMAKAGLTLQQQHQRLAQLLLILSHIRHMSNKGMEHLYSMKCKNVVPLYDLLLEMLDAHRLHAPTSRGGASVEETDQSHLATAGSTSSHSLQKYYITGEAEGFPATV

[3] = target: T2, Prostaglandin G/H synthase 1 (Homo sapiens, UniProt P23219); test: Inhibition of human platelet COX1 using arachidonic acid as substrate at 10 uM preincubated for 15 mins before arachidonic acid addition measured after 15 mins
T2 sequence (P23219 whole entry): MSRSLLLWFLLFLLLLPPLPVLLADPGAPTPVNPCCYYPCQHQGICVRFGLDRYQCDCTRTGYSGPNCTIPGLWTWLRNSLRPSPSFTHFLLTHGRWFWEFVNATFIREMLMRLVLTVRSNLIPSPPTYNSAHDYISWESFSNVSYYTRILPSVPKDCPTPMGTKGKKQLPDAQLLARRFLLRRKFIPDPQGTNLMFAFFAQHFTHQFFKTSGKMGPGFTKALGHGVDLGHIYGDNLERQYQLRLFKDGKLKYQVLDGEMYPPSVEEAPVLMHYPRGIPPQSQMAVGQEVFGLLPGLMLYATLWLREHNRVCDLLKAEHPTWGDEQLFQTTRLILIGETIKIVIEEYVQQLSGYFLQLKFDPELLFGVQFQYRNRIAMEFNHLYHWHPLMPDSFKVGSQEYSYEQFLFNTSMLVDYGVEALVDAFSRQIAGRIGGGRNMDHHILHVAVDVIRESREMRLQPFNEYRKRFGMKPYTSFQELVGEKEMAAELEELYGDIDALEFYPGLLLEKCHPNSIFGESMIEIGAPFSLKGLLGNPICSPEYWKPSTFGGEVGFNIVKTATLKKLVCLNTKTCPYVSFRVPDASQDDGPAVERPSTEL

[4] = target: T3, Prostaglandin G/H synthase 2 (Homo sapiens) (UniProt P35354); test: Inhibition of human recombinant COX2 expressed in Sf21 cells using arachidonic acid as substrate at 10 uM preincubated for 15 mins before arachidonic acid addition measured after 5 mins
T3 sequence (whole entry): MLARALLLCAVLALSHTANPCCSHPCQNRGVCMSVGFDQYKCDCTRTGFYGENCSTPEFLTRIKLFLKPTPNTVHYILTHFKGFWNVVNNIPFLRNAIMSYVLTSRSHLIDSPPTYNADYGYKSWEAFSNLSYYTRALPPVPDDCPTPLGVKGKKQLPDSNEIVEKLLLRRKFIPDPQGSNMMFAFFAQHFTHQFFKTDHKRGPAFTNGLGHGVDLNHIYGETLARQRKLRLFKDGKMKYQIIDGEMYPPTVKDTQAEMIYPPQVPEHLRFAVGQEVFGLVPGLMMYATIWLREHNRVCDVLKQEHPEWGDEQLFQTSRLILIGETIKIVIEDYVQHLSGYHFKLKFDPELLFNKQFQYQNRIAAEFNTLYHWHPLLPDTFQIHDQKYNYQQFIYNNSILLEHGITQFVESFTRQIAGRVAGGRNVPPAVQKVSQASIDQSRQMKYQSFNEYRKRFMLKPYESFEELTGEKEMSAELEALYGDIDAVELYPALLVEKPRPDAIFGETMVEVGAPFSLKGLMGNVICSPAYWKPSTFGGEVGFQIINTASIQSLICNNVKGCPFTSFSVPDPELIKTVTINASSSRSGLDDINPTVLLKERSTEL

[5] = target: T4, Prostaglandin G/H synthase 2 (Homo sapiens, UniProt P35354); test: Inhibition of COX2
T4 sequence (P35354 whole entry): T3 sequence (whole entry)

[6] = target: T2, Prostaglandin G/H synthase 1; test: Inhibition of COX1

Chain of Estrogen receptor beta (Homo sapiens) (Q92731 whole entry): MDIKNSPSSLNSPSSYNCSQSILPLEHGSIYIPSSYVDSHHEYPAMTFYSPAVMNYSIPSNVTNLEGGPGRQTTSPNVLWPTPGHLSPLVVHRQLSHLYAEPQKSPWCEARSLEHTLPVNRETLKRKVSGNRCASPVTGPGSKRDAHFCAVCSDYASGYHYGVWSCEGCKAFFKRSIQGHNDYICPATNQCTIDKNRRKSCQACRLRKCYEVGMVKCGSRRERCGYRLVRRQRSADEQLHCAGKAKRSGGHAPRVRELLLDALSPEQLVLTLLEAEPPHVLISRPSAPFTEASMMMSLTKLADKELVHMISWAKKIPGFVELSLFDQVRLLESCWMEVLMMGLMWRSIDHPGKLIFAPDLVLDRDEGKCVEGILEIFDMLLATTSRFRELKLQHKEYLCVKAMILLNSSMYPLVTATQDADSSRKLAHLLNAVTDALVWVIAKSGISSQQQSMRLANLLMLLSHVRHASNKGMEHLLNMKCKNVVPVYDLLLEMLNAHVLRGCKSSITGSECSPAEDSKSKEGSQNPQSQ

Row | Structure (SMILES) | inhibition [1] [%] | inhibition [2] [%] | inhibition [3] [%] | inhibition [4] [%] | IC50 [5] [nM] | IC50 [6] [nM]
1 | CC(=C(c1ccccc1)c1ccccc1)c1ccc([S+](C)(=N)[O-])cc1 (stereo not given) | 53 | 77 | 23 | – | – | –
2 | CCCCC(=C(c1ccccc1)c1ccccc1)c1ccc([S+](C)([O-])=NC#N)cc1 (stereo not given) | 60 | 54 | 5 | 10 | – | –
3 | CCCCC(=C(c1ccccc1)c1ccccc1)c1ccc(S(C)(=O)=O)cc1 | 77 | -6 | – | – | 14 | > 100000
4 | CCCCC(=C(c1ccccc1)c1ccccc1)c1ccc([S+](C)(=N)[O-])cc1 (stereo not given) | 80 | 91 | 12 | 17 | – | –
